Where two headings read alike, the source gives them in different places.
Tests used:
[1] = system: mouse leukemia L-1210 cells; experiment: Antiproliferative activity in vitro, viability of L-1210 cells in culture; assay type: cell-based; conditions: for IC50: read-out: Concentration (μM) for 50 percent loss of viability at 72 hours (ED50)
Description: The antiproliferative activity of the conjugates, ara-C, ara-CMP and the steroids was determined by measuring their effects against mouse leukemia L-1210 cells in culture. The assay was performed in test tubes without agitation according to the procedure described by Hong et al. in J. Med. Chem. 16: 139 (1973). After 24, 48 and 72 h, viable cell counts were performed on the cultures which had been incubated with compounds in various concentrations and the concentration of each compound required to produce a 50 percent inhibition of growth (ED50) after 72 h was determined by interpolation using the method described by Tritsch et al. in Cancer Biochem. Biophys. 2: 87 (1977).

[2] = system: i.p. implanted L-1210 leukemia; experiment: Antitumor activity against i.p. implanted L-1210 leukemia in mice; assay type: in vivo; conditions: for response vs control in vivo at 25 mg/kg / response vs control in vivo at 50 mg/kg / response vs control in vivo at 100 mg/kg: Mus musculus, L1210, ip; for response vs control in vivo at 50 mg/kg: read-out: Percent T/C (mean survival days treated/control × 100), 50 mg/kg/day × 5 i.p.; for response vs control in vivo at 100 mg/kg: read-out: Percent T/C (mean survival days treated/control × 100), 100 mg/kg/day × 5 i.p.
Description: The ascites cell form of L-1210 leukemia, grown in C3 D2 F1 /J female mice (supplied by Jackson Labs) were employed. The assay was performed according to National Cancer Institute (NCI) protocol 1.100 described by R. I. Gerau et al., Cancer Chemother. Rep. (Part 3) 3: (2): 7, 47 (1972) with a slight modification. Intraperitoneal implantation of 1×10^6 cells in 0.5-ml suspension to the control and the treated groups (each group comprised 8 C3 D2 F1 /J female mice, average wt 20 g) was carried out using donor mice (DBA/2Ha, supplied by Roswell Park Memorial Institute) bearing 3 day tumor growths. Compounds were dissolved in 0.9 percent NaCl and a 0.5 ml dose was administered intraperitoneally once daily. Treatment began 24 h after implantation and continued for 5 consecutive days. Control animals received a 0.5 ml injection of saline. Testing was followed as described in the NCI protocol and evaluated by recording the survival time according to the formula appearing in protocol 11.

[3] = system: intracerebrally implanted L-1210; experiment: Antitumor activity against intracerebrally (i.c.) implanted L-1210 in mice; assay type: in vivo; conditions: for Survivors on day 35: groups of 8 mice; for Percent T/C: values as of 35th day
Description: Effects of the conjugate on i.c. implanted L-1210 in mice were also studied. A mouse (C3 D2 F1 /J, female, avg. wt. 20 g) was anesthesized with diethyl ether, the right parietal scalp was washed with 70 percent ethanol, a 27 G 1/2 needle with a guard placed on the outside of the barrel 1.5 mm from the top of the bevel, was inserted through the skull and 1×10^5 cells in 0.05 ml suspension were inoculated into the mouse. The conjugate in 0.9 percent NaCl (0.5 ml) was administered intraperitoneally once daily. Treatment began 24 h after implantation and continued for 5 consecutive days. Control animals received a 0.5 ml injection of saline. Testing was followed as described in the NCI protocol and evaluated by recording the survival time according to the formula appearing in protocol 11.

[4] = system: i.p. implanted L1210 leukemia; experiment: Comparison of conjugates and ara-C plus steroid combinations, i.p. implanted L1210 leukemic mice; assay type: in vivo
Description: Each mouse received 1×10^6 cells intraperitoneally. Doses were administered i.p. once daily to groups of 8 mice (avg. wt. 20 g) for 5 consecutive days beginning 24 hours after tumor implantation. In case of the combination, ara-C and the steroid were given at the same molar concentrations present in the conjugates. Mean survival days were calculated by the equation appearing in the NCI protocol; T/C ratios are reported in percent, i.e (treated/control)×100.

[5] = read-out: Percent T/C (mean survival days treated/control × 100), 25 mg/kg/day × 5 i.p.

Nc1ccn([C@@H]2O[C@H](CO)[C@@H](O)[C@@H]2O)c(=O)n1 [Ara-C, 1-β-D-Arabinofuranosylcytosine, reference compound]
IC50 ([1]; Mus musculus, L1210, 72 h): 0.1 µM
Mean Survival Days, Treated ([2]; 25 mg/kg/day × 5 i.p.): 11.00 days
Mean Survival Days, Treated ([2]; 50 mg/kg/day × 5 i.p.): 9.63 days
Percent T/C (mean survival days treated/control × 100) ([2]; 50 mg/kg/day × 5 i.p.): 110%
response vs control in vivo at 25 mg/kg [2, 5]: 128%
response vs control in vivo at 50 mg/kg [2]: 110%
Mean Survival Days ([3]; 25 mg (102.8 μmol)/kg/day × 5 i.p.): 13.75 days
Survivors on day 35 ([3]; 25 mg/kg/day × 5 i.p.): 0
Percent T/C ([3]; 25 mg/kg/day × 5 i.p.): 152.8%
Percent T/C ([3]; 25 mg/kg/day × 5 i.p., listed as ara-C): 153%
weight lost by day 14 ([3]; ara-C treated mice): about 5 g
deaths of treated mice ([3]; ara-C treated mice, by day 14): all but one of them died

Nc1ccn([C@@H]2O[C@H](COP(=O)(O)O)[C@@H](O)[C@@H]2O)c(=O)n1 [Ara-CMP, reference compound]
IC50 ([1]; Mus musculus, L1210, 72 h): 0.05 µM
Mean Survival Days, Treated ([2]; 50 mg/kg/day × 5 i.p.): 9.13 days
Mean Survival Days, Treated ([2]; 100 mg/kg/day × 5 i.p.): 11.00 days
response vs control in vivo at 50 mg/kg [2]: 104%
response vs control in vivo at 100 mg/kg [2]: 122%

C[C@]12C[C@H](O)[C@H]3[C@@H](CCC4=CC(=O)CC[C@@]43C)[C@@H]1CC[C@@H]2C(=O)COP(=O)(O)OC[C@H]1O[C@@H](n2ccc(N)nc2=O)[C@@H](O)[C@@H]1O [Corticosterone-p-ara-C]
Survival Days Mean (Treated) ([4]; 77.0 μmole/kg/day × 5): 26.50 days
Weight change on Day 8 (g/mouse) ([4]; 77.0 μmole/kg/day × 5): -0.71 g/mouse
response vs control in vivo at 77 µmol/kg ([4]; Mus musculus, L1210, ip, 77.0 μmole/kg/day × 5, read-out: % T/C): 342%

C[C@]12CCC(=O)C=C1CC[C@@H]1[C@@H]2[C@@H](O)C[C@@]2(C)[C@H]1CC[C@]2(O)C(=O)COP(=O)(O)OC[C@H]1O[C@@H](n2ccc(N)nc2=O)[C@@H](O)[C@@H]1O [Cortisol-p-ara-C (V), 5'-(Cortisol-21-phosphoryl)-1-β-D-arabinofuranosylcytosine]
antiproliferative activity compared with ara-CMP and ara-C ([1]; 72 h): less active than both ara-CMP and ara-C
IC50 ([1]; Mus musculus, L1210, 72 h): 0.25 µM
Mean Survival Days, Treated ([2]; 50 mg/kg/day × 5 i.p.): 24.75 days
Mean Survival Days, Treated ([2]; 100 mg/kg/day × 5 i.p.): 14.25 days
response vs control in vivo at 50 mg/kg [2]: 287%
response vs control in vivo at 100 mg/kg [2]: 154%
Survival Days Mean (Treated) ([4]; 75.0 μmole/kg/day × 5): 24.75 days
Weight change on Day 8 (g/mouse) ([4]; 75.0 μmole/kg/day × 5 (each, for combinations)): +0.09 g/mouse
response vs control in vivo at 75 µmol/kg ([4]; Mus musculus, L1210, ip, 75.0 μmole/kg/day × 5, read-out: % T/C): 287%
Mean Survival Days ([3]; 50 mg/kg/day × 5 i.p.): 20.50 days
body weight lost by day 11 ([3]; 50 mg/kg/day × 5 i.p.): about 4 g
weight gained over original weight (20 g) by day 20 ([3]; 50 mg/kg/day × 5 i.p.): about 1 g
Survivors on day 35 ([3]; 50 mg/kg/day × 5 i.p.): 2
Percent T/C ([3]; 50 mg/kg/day × 5 i.p.): 227.8%
Percent T/C ([3]; 50 mg/kg/day × 5 i.p., listed as V): 228%

C[C@]12CCC(=O)C=C1CC[C@@H]1[C@@H]2C(=O)C[C@@]2(C)[C@H]1CC[C@]2(O)C(=O)COP(=O)(O)OC[C@H]1O[C@@H](n2ccc(N)nc2=O)[C@@H](O)[C@@H]1O [Cortisone-p-ara-C (VI), 5'-(Cortisone-21-phosphoryl)-1-β-D-arabinofuranosylcytosine]
antiproliferative activity compared with ara-CMP and ara-C ([1]; 72 h): activity comparable to ara-CMP
IC50 ([1]; Mus musculus, L1210, 72 h): 0.07 µM
Mean Survival Days, Treated ([2]; 50 mg/kg/day × 5 i.p.): 20.14 days
response vs control in vivo at 50 mg/kg [2]: 224%
Survival Days Mean (Treated) ([4]; 75.1 μmole/kg/day × 5): 21.43 days
Weight change on Day 8 (g/mouse) ([4]; 75.1 μmole/kg/day × 5): -0.07 g/mouse
response vs control in vivo at 75.1 µmol/kg ([4]; Mus musculus, L1210, ip, 75.1 μmole/kg/day × 5, read-out: % T/C): 238%

C[C@]12CC[C@H]3[C@@H](CCC4=CC(=O)CC[C@@]43C)[C@@H]1CC[C@@H]2C(=O)COP(=O)(O)OC[C@H]1O[C@@H](n2ccc(N)nc2=O)[C@@H](O)[C@@H]1O [DOC-p-ara-C]
Survival Days Mean (Treated) ([4]; 78.7 μmole/kg/day × 5): 21.38 days
Weight change on Day 8 (g/mouse) ([4]; 78.7 μmole/kg/day × 5): -0.94 g/mouse
response vs control in vivo at 78.7 µmol/kg ([4]; Mus musculus, L1210, ip, 78.7 μmole/kg/day × 5, read-out: % T/C): 238%

C[C@@H]1C[C@H]2[C@@H]3CCC4=CC(=O)C=C[C@]4(C)[C@@]3(F)[C@@H](O)C[C@]2(C)[C@@]1(O)C(=O)COP(=O)(O)OC[C@H]1O[C@@H](n2ccc(N)nc2=O)[C@@H](O)[C@@H]1O [DXM-p-ara-C (III), 5'-(Dexamethasone-21-phosphoryl)-1-β-D-arabinofuranosylcytosine]
antiproliferative activity compared with ara-CMP and ara-C ([1]; 72 h): activity comparable to ara-CMP
IC50 ([1]; Mus musculus, L1210, 72 h): 0.08 µM
toxicity ([2]; 50 mg (71.7 μmol)/kg/day): showed some toxicity
Mean Survival Days, Treated ([2]; 50 mg/kg/day × 5 i.p.): 13.50 days
Percent T/C (mean survival days treated/control × 100) ([2]; 50 mg/kg/day × 5 i.p.): 150%
response vs control in vivo at 50 mg/kg [2]: 150%
Survival Days Mean (Treated) ([4]; 36.0 μmole/kg/day × 5): 11.50 days
Weight change on Day 8 (g/mouse) ([4]; 36.0 μmole/kg/day × 5): -1.03 g/mouse
Survival Days Mean (Treated) ([4]; 71.7 μmole/kg/day × 5): 13.50 days
Weight change on Day 8 (g/mouse) ([4]; 71.7 μmole/kg/day × 5): -1.50 g/mouse
response vs control in vivo at 36 µmol/kg ([4]; Mus musculus, L1210, ip, 36.0 μmole/kg/day × 5, read-out: % T/C): 128%
response vs control in vivo at 71.7 µmol/kg ([4]; Mus musculus, L1210, ip, 71.7 μmole/kg/day × 5, read-out: % T/C): 150%

CC12CCC(=O)C=C1CCC1C3CCC(O)(C(=O)COP(=O)(O)OCC4OC(n5ccc(N)nc5=O)C(O)C4O)C3(C)CC(O)C12F (centres unmarked) [Fludrocortisone-p-ara-C]
Survival Days Mean (Treated) ([4]; 36.46 μmole/kg/day × 5): 14.30 days
Weight change on Day 8 (g/mouse) ([4]; 36.46 μmole/kg/day × 5): -1.09 g/mouse
response vs control in vivo at 36.46 µmol/kg ([4]; Mus musculus, L1210, ip, 36.46 μmole/kg/day × 5, read-out: % T/C): 159%

C[C@H]1C[C@@H]2[C@H]([C@@H](O)C[C@@]3(C)[C@H]2CC[C@]3(O)C(=O)COP(=O)(O)OC[C@H]2O[C@H](n3ccc(N)nc3=O)[C@@H](O)[C@@H]2O)[C@@]2(C)C=CC(=O)C=C12 [MePred-p-ara-C (IV), 5'-(6α-Methylprednisolone-21-phosphoryl)-1-α-D-arabinofuranosylcytosine]
antiproliferative activity compared with ara-CMP and ara-C ([1]; 72 h): activity comparable to ara-CMP
IC50 ([1]; 72 h): 0.05 µM
% T/C ([4]; 74.0 μmole/kg/day × 5): 246.8%
Survival Days Mean (Treated) ([4]; 74.0 μmole/kg/day × 5): 19.13 days
Survival Days Range ([4]; 74.0 μmole/kg/day × 5): 14 to 24 days
Weight change on Day 8 (g/mouse) ([4]; 74.0 μmole/kg/day × 5): -1.08 g/mouse

C[C@]12C=CC(=O)C=C1CC[C@@H]1[C@@H]2[C@@H](O)C[C@@]2(C)[C@H]1CC[C@]2(O)C(=O)CO [Prednisolone, 11β,17α,21-trihydroxy-1,4-pregnadiene-3,20-dione, reference compound]
response vs control in vivo at 25 mg/kg [2, 5]: 133%

C[C@]12C=CC(=O)C=C1CC[C@@H]1[C@@H]2C(=O)C[C@@]2(C)[C@H]1CC[C@]2(O)C(=O)CO [prednisone, 17α,21-dihydroxy-1,4-pregnadiene-3,11,20-trione, reference compound]
response vs control in vivo at 25 mg/kg ([2]; 25 mg/kg/day × 5 i.p., read-out: Percent T/C (mean survival days treated/control × 100)): 133%

From US4283394A, “Cytotoxic nucleoside-corticosteroid phosphodiesters” (priority 1979, dated 1981)
